One compound from patent US7612107B2, “Treatment and inhibition of disease conditions using flexible heteroarotinoids” (The Board of Regents of the University of Oklahoma, priority 2005, dated 2009) can be followed below.

The test system of one series is dorsal skin. The experiment in a line: Topical irritancy in Skh hairless mice. Particulars: topical, dorsal skin, 4 days, 2-log dose range. It is filed as in vivo. The method, then:
Female Skh hairless mice, 6-8 weeks old, were treated topically on the dorsal skin for 4 days over a 2-log concentration dose range with various compounds. Retinoic acid receptor-Hets were evaluated in A, while retinoic acid receptor-independent Flex-Hets were evaluated in B. Daily flaking and abrasion scores were combined to calculate a single cutaneous toxicity score for each mouse. Each treatment group consisted of 4 mice, and group averages were used to plot cutaneous toxicity against doses of the compounds.
Topical irritancy was evaluated according to published procedures (29). Briefly, female Skh hairless mice, 6-8 weeks old, were treated topically on the dorsal skin for 4 days over a 2-log concentration dose range with various compounds. Daily flaking and abrasion scores were combined to calculate a single cutaneous toxicity score for each mouse. Each treatment group consists of 4 mice, and group averages are used to plot cutaneous toxicity against dose of the retinoid compound.

The subject of series [1] is Caki renal cancer xenografts. The experiment in a line: Caki renal cancer xenograft tumor model. It is filed as in vivo, mouse. The method, then: FIG. 12. Various Xenograft tumors stained with CD34 antibodies (brown) to identify endothelium. The B16 mouse melanoma cell line was established as a syngeneic tumor in an immunocompetent mouse model and the human Caki renal cancer and A2780 ovarian xenograft tumors in immunocompromised mice. The treated mice were gavaged with 60 mg/kg/day SHetA2 and the untreated were gavaged with solvent only. The tumors were excised and sections were stained with the anti-CD34 antibody to detect endothelial cells (brown stain).
FIG. 20. Mice harboring Caki renal cancer xenografts were treated with 60 mg/kg/day SHetA2 or PEG400 vehicle for 15 days. After another 15 days of growth, the tumors were removed, fixed, embedded and sections. Sections were stained with PAS to identify glycoproteins and lysosomes. The untreated tumor is on the left and the treated tumor is on the right.
Survival was the primary endpoint of those studies. […] Tumor growth was the primary endpoint of the renal cancer study.

Series [2] has as its system NCI human tumor cell line panel. Nature of the series: SHetA2 cytotoxicity in NCI human tumor cell line panel. It is filed as cell-based. The procedure:
The SHetA2 compound was evaluated in the National Cancer Institute (NCI) human tumor cell line panel by the Developmental Therapeutics Program (DTP). The human tumor cell lines were grown in RPMI 1640 medium containing 5% fetal bovine serum and 2 mM L-glutamine. Cells were inoculated into 96 well microtiter plates at densities ranging from 5,000 to 40,000 cells/well depending on the doubling time of individual cell lines and incubated for 24 h prior to addition of SHetA2. After 24 h, two plates of each cell line were fixed in situ with TCA, to represent a measurement of the cell population for each cell line at the time of drug addition (Tz). Drugs were dissolved in dimethyl sulfoxide (DMSO) and diluted in complete medium containing 50 μg/ml gentamicin, prior to addition to the culture wells. […] […] The absorbance was read on an automated plate reader at a wavelength of 515 nm. Using the seven absorbance measurements (time zero, (Tz), control growth, (C), and test growth in the presence of drug at the five concentration levels (Ti)), the GI50 was calculated from [(Ti−Tz)/(C−Tz)]×100=50. […]

The subject of series [3] is EAhy.926 endothelial cells. The experiment in a line: Endothelial tube branching on matrigel. It is filed as cell-based. Particulars: 1, 5 and 10 μM; 20 hours. The method, then:
The graph on the left provides quantification of the endothelial branches for each treatment dose.
The increased thickness of the vessels at 1 μM and the increasing proportions of solitary clumps of cells at 5 and 10 μM indicate that SHetA2 is inhibiting endothelial cell migration. To determine if this anti-angiogenic activity was due to growth inhibition or cytotoxicity. The viability of the endothelial cells treated with SHetA2 for 24 hours was evaluated. […] This confirms the therapeutic ratio observed in previous studies.

Take `CC1(C)CC(C)(C)c2cc(NC(=S)Nc3ccc([N+](=O)[O-])cc3)ccc2S1` [SHetA2]: the “Topical irritancy (cutaneous toxicity score)” value in the series on dorsal skin is “did not induce topical irritancy”. Further, the “PAS stain of renal xenograft tumors” value in series [1] (60 mg/kg/day for 15 days, treated vs untreated tumors) is “increase in general glycoprotein expression and lysosomal staining”. Also, in series [1] (renal cancer model), the Tumor growth entry was “decreased tumor growth”. The “Development of blood vessels inside tumors (anti-CD34 staining)” value in series [1] (renal, oral 60 mg/kg/day) is given as “inhibited the development of blood vessels”. In addition, the percent growth levels result in series [2] (10 and 100 μM SHetA2, majority of cell lines) is “negative percent growth levels”. Moreover, the GI50 values entry in series [2] (55 cell lines, 9 cancer types, 48 h) is reported as “micromolar range”. Besides, in series [3], the “Inhibition of angiogenesis: endothelial tube branching” value is on record as “dose-responsive inhibition”.
